Data set [1] deals with T1, hCB2R (Homo sapiens, UniProt P34972).
T1 construct: host or cells: CHO-K1 (HitHunter cAMP cell line)
Description: HitHunter cAMP assay: inhibition of forskolin-stimulated cAMP. Conditions: for Emax: read-out: Emax ± SEM. It counts as cell-based. The method, then:
Chinese hamster ovary (CHO)-K1 cells untransfected or stably-expressing human cannabinoid CB2R (hCB2R) were used as previously reported. Cells were maintained at 37 °C, 5% CO2 in F-12/DMEM containing 1 mM L-glutamine, 10% fetal bovine serum (FBS), and 1% Pen/Strep and hygromycin B (300 μg/mL) and G418 (400 μg/mL). HitHunter® (cAMP) CHO-K1 cells stably expressing hCB2R from DiscoveRx (Eurofins, Fremont, CA, USA) were maintained at 37 °C, 5% CO2 in F-12 DMEM containing 10% FBS and 1% Pen/Strep with 800 μg/mL geneticin.
This method was conducted as described previously. The quantification of FSK-stimulated cAMP accumulation was performed using the DiscoveRx HitHunter assay. Twenty thousand cells/well were plated in low-volume 96-well plates and incubated overnight in Opti-MEM containing 1% FBS at 37 °C and 5% CO2. Opti-MEM media was then removed and replaced with cell assay buffer (DiscoveRx), and cells were co-treated at 37 °C with 10 μM FSK and ligands for 90 min. The cAMP antibody solution and cAMP working detection solutions were added to cells (DiscoveRx), and cells were incubated for 60 min at room temperature. cAMP solution A (DiscoveRx) was added, and cells were incubated for an additional 180 min at room temperature before chemiluminescence was measured on a Cytation5 plate reader (top read, gain 200, integration time 10,000 ms).
Post-hoc analyses were performed using Tukey’s (one-way ANOVA) test.

The subject of data set [2] is HMC3 cells. Description: IL-6 release (ELISA) in LPS/TNFα stimulated HMC3 cells. It counts as cell-based, human. How it is done: The human microglial clone 3 cell line (HMC3) (ATCC® CRL-3304™) was cultured in high glucose DMEM supplemented with 10% FBS, streptomycin ([…]) and penicillin (100 U/mL) (Sigma-Aldrich, Milan, Italy). LPS (Cat. number L4391) and TNFα (Cat. number H8916) were purchased from Sigma-Aldrich (Milan, Italy).
The pro-inflammatory IL-6 levels were evaluated by a specific ELISA assay (RAB0306, Sigma-Aldrich, Milan, Italy) on collected culture media. Briefly, HMC3 cells were exposed to pretreatment with a test compound for 30 min followed by LPS (10 μg/mL)/TNFα (50 ng/mL) for 24 h, used as pro-inflammatory stimuli. Vehicle-treated cells were used as control. In competition experiments, the CB2R antagonist (SR144528, 1 μM; Cayman Chemical Company, Ann Arbor, MA, USA) or the CB2R positive allosteric modulator (EC21a, 10 μM) was administered 15 min before agonist administration.

A short description of data set [3]: Plasma stability (LC-HRMS), rat plasma. Type of data set: in vitro ADME. The settings on record: 20 µM, 37 °C, up to 360 min. The method, then:
(§1) Plasma stability was evaluated at the time points 0, 10, 30, 60, 120, 240, and 360 min over two species, rodent (rat) and human, and assessed by LC-HRMS. Results are expressed as a relative percentage (mean ± SD) with respect to the amount at t = 0 min. JR22a is stable both in rat and human plasma up to the last time point tested (360 min), as can be observed in Figure 6.
(§2) Stock solutions of 1 mg/mL JR22a and procainamide (used as internal standard, IS) were prepared in CH3OH and kept in ice during sample preparation and stored at −20 °C if not in use. The stability was tested in rat and human plasma obtained from Sigma-Aldrich (Milan, Italy).
(§3) JR22a (20 µM) was incubated with plasma at 37 °C under gentle shaking up to […] in triplicates. An aliquot of 20 µL was withdrawn from the mixture and diluted to a final volume of 200 µL of a 2 % TCA solution containing procainamide 1 µM at each time point: 10, 30, 60, 120, 240, and 360 min. Samples were kept in ice for 20 min and then centrifugated at 14,000 rpm for 10 min at 4 °C. The supernatant was diluted 1:1 with water and transferred in vials for the analysis. […]

In data set [4] the target is T1, hCB2R. In words: [3H]CP55,940 radioligand displacement assay, hCB2R. Type of data set: binding. How it is done: (§4) We assessed ligand affinity for JR-22a at hCB1R and hCB2R using a […]
(§5) either receptor. […] At hCB2R, JR-22a
(§6) Figure S1. […] Membranes from CHO-K1 cells stably-expressing hCB1R (a) or […]
(§7) Data were fitted to a non-linear regression (three-parameter model, GraphPad v. 9.0). Data are mean ± S.E.M. of 3 independent experiments performed in triplicate.
(§8) Radioligand Displacement Assay.
(§9) Cells were scraped from flasks, centrifuged, and frozen at −80 °C until required.
(§10) This method was conducted as described previously. Cells were thawed, diluted in Tris buffer (50 mM Tris−HCl and 50 mM Tris−base), and homogenized in a 1 mL handheld homogenizer. hCB1R and hCB2R CHO−K1 cell membranes were collected by cavitation in a pressure cell and sedimented by ultracentrifugation. Pellets were resuspended in TME buffer (50 mM Tris−HCl, 5 mM MgCl2, 1 mM EDTA, pH 7.4), and protein concentration was measured via the Bradford method (Bio-Rad Laboratories, Mississauga, ON). Competition binding experiments were conducted with 1 nM [3H]CP55, 940 and Tris binding buffer (50 mM Tris−HCl, 50 mM Tris−base, 0.1% BSA, pH 7.4, 2 mL). Radioligand binding began with the addition of CHO−K1 cell membranes (50 μg protein per sample). […] Liquid scintillation spectrometry was used to quantify radioactivity. For competition binding experiments, specific binding was equal to the difference in radioactivity with or without 1 μM […]

Data set [5] has as its system HMC3 cells. In words: MTT cell viability assay. Type of data set: cell-based, human. Conditions: 24 h. How it is done: Cell viability was evaluated by 3-(4,5-dimethylthiazol-2-yl)-2,5-diphenyltetrazolium bromide (MTT) reagent. Briefly, HMC3 cells were exposed to increasing concentrations of the compound, ranging from 0.1 to 25 µM. After 24 h, 0.5 mg/mL MTT reagent was added to each well, and the cells were incubated for 3 h at 37 °C. Then, 25 µL of the medium was removed from the wells, and 50 µL of DMSO was added. After 10 min incubation at 37 °C, absorbance at OD540 nm was determined with an automated microplate reader (BIO-TEK, Winooski, VT, USA). The percentage of cell viability was calculated as a percentage of vehicle-treated cells used as control.

For a further data set, the target named is T2, hCB1R (Homo sapiens, UniProt P21554).
T2 construct: expressed in transfected cells; host or cells: CHO-K1 cell membranes
T2 sequence (P21554 whole entry): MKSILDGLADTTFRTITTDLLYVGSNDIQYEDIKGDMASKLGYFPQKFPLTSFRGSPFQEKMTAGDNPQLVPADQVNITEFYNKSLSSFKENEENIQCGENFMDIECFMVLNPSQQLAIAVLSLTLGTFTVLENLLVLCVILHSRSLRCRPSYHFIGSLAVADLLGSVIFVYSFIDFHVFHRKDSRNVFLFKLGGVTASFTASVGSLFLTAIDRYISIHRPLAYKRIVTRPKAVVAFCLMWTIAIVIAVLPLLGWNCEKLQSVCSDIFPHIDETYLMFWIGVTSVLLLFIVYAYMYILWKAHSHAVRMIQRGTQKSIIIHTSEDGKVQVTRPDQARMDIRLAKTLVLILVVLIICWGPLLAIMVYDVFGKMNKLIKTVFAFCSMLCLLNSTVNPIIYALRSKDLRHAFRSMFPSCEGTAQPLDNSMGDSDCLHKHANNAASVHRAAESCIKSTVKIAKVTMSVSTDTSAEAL
Description: [3H]CP55,940 radioligand displacement assay, hCB1R. It counts as binding. Conditions: CHO hCB1R membranes, 1 nM [3H]CP55,940, 0.10 nM-10 μM compound, 2 h. The method, then:
as §4, §5, §6, §7, §8, §9, §10

The nature of data set [6]: Plasma stability (LC-HRMS), human plasma. Type of data set: in vitro ADME. The settings on record: 20 µM, 37 °C, up to 360 min. The method, then: as §1, §2, §3
The mark [7] stands for this setting: pEC50 ± SEM, compound alone, CHO hCB2R, 10 μM FSK, 90 min.

Read-outs that look alike come from different tables or passages of the source.

T1 sequence (P34972 whole entry): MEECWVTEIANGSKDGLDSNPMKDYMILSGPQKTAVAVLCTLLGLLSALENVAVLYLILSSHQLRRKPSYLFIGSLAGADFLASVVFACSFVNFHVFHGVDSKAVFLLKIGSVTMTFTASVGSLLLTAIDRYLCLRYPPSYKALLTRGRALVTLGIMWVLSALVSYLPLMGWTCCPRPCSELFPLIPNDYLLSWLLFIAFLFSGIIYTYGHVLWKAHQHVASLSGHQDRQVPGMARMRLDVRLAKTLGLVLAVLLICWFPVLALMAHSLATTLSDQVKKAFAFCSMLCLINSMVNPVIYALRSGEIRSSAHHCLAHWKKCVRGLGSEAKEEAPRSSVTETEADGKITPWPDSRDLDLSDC

On to `Cc1c(Br)cn(Cc2ccc(F)cc2)c(=O)c1NC(=O)C1CCCCCC1` [EC21a, reference compound], for which, on hCB2R [1], the EC50 was 30 nM and the Emax was -14 ± 7%. Also, at hCB2R [1] (EC21a alone, Emax not different from 0), the “Activity alone in cAMP inhibition” value was “inactive”.

Consider `Cc1c(Br)cn(CCCc2cn(CCCCC(=O)NC3CCC(NC(=O)c4cc5cccnc5n(Cc5ccc(F)cc5)c4=O)CC3)nn2)c(=O)c1NC(=O)C1CCCCCC1` (stereo not drawn) [JR14a], for which the “pEC50 ± SEM” value at hCB2R [1] (compound alone, CHO hCB2R, 10 μM FSK, 90 min) amounted to 7.6 ± 0.9. At hCB2R [1] (compound alone, CHO hCB2R, 10 μM FSK, 90 min, read-out: EC50 (in brackets after pEC50) (converted)), the EC50 was 24 nM. On hCB2R [1], the Emax is 29 ± 5%.

As for `Cc1c(Br)cn(CCCc2cn(CCCCCn3c(=O)c(C(=O)NC4CCC(C)CC4)cc4cccnc43)nn2)c(=O)c1NC(=O)C1CCCCCC1` (stereo not drawn) [JR22a], the “IL-6 levels in the cultured medium” value in the data set on HMC3 cells [2] (1 and 10 μM, 30 min pre-treatment, then LPS (10 μg/mL)/TNFα (50 ng/mL) 24 h) is recorded as “significant dose-dependent decrease”. For the same compound, the “Effect of EC21a co-treatment on ability of JR22a to prevent IL-6 release” value in the data set with HMC3 cells [2] (EC21a 10 μM, equimolar with JR22a, LPS/TNFα 24 h) was “did not interfere”. For the same compound, in the data set with HMC3 cells [2] (SR144528 1 μM, 15 min before JR22a, LPS/TNFα 24 h), the “Effect of SR144528 pre-administration on the JR22a effect on IL-6 release” value is recorded as “almost completely abolished”. Also, the EC50 is 698 nM on hCB2R [1] (EC50 (in brackets after pEC50), compound alone, CHO hCB2R, 10 μM FSK, 90 min) and 794 nM on hCB2R [1] (setting [7]). The Emax at hCB2R [1] was found to be 53 ± 6%. Further, the Plasma stability entry in data set [3] and in data set [6] was “stable” in each case. The IC50 at hCB2R [4] was found to be 95 nM. Besides, on hCB2R [4], the Ki amounted to 95 nM. The “Cell viability (MTT)” value with HMC3 cells [5] (25 μM) was “significant inhibition of cell viability”. Moreover, the “Cytotoxic effect (cell viability, MTT)” value in the data set with HMC3 cells [5] (1 and 10 μM) is recorded as “no cytotoxic effect”. In addition, the “Displacement of [3H]CP55,940” value at hCB1R was “not able to displace”.

For the compound `Cc1c(Br)cn(CCCCCCCn2c(=O)c(C(=O)NC3CCC(C)CC3)cc3cccnc32)c(=O)c1NC(=O)C1CCCCCC1` (stereo not drawn) [JR64a], the midpoint of the response on hCB2R [1] (setting [7]), the EC50, lay at 2.51 nM. The Emax on hCB2R [1] worked out at 19 ± 6%.

(Values after article PMC9917213, “New Insights into Bitopic Orthosteric/Allosteric Ligands of Cannabinoid Receptor Type 2” (International Journal of Molecular Sciences, 2023).)
